Data reported in publication PMC3743865, “The FLT3 Inhibitor Quizartinib Inhibits ABCG2 at Pharmacologically Relevant Concentrations, with Implications for Both Chemosensitization and Adverse Drug Interactions” (PLoS ONE, 2013).

How the values were obtained:
ABCG2 = molecular target: T1, ABCG2 (Homo sapiens, UniProt Q9UNQ0); assay: biochemical
T1 sequence (Q9UNQ0 1-655): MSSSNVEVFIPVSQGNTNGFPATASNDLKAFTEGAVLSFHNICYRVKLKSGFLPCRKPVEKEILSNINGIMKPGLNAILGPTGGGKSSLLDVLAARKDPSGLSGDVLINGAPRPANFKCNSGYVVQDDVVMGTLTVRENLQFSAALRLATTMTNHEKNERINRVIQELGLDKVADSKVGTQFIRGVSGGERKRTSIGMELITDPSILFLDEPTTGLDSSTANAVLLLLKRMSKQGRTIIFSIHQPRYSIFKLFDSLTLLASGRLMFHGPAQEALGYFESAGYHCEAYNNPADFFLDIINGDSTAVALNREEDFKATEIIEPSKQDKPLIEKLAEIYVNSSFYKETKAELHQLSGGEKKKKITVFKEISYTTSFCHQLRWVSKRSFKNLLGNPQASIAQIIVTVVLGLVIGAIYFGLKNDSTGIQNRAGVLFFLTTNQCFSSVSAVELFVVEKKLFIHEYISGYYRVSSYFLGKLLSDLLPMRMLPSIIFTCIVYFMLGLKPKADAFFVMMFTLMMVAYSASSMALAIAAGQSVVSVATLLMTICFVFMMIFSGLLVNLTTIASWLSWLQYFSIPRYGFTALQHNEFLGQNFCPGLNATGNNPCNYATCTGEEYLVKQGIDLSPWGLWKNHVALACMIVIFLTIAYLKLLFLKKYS

ABCB1 = ABCB1 (Homo sapiens, UniProt P08183); assay: biochemical
Chain of ABCB1 (P08183 whole entry): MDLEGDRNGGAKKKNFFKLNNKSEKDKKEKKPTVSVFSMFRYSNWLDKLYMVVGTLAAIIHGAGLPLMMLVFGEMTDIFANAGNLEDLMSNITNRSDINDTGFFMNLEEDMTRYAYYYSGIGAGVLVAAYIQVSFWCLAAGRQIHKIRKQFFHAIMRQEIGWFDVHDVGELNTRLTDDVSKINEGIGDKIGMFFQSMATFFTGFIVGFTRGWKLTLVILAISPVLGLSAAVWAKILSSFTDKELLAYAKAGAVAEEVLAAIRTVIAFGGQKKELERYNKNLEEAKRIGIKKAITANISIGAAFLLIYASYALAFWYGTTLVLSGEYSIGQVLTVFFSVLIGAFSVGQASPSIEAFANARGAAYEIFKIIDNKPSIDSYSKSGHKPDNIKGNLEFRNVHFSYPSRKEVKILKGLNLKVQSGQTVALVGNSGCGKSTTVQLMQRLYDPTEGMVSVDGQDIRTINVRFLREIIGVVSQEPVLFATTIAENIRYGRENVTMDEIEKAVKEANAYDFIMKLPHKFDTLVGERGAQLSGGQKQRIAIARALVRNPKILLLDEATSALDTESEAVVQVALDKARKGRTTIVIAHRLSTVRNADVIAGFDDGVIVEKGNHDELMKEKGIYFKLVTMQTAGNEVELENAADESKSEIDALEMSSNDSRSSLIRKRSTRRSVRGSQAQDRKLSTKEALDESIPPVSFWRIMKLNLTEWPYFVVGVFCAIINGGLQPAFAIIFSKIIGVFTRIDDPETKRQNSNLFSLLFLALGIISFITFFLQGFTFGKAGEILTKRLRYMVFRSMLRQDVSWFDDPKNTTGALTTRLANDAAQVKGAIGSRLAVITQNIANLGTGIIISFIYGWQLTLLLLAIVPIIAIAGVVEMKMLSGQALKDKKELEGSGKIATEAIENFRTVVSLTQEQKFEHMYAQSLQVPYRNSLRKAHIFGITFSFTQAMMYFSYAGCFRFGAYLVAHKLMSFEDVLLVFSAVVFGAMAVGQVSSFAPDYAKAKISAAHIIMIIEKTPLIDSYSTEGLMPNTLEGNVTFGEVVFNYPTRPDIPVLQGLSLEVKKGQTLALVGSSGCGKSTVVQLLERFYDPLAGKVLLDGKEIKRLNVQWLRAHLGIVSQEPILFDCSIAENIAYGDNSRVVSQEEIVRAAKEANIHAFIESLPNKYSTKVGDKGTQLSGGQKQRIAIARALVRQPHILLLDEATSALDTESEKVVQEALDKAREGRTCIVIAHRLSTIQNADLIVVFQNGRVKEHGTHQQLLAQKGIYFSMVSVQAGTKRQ

IC50 (ABCG2): 0.07 µM
IC50 (ABCB1): 3.3 µM
Structure (SMILES): CC(C)(C)c1cc(NC(=O)Nc2ccc(-c3cn4c(n3)sc3cc(OCCN5CCOCC5)ccc34)cc2)no1 [quizartinib]
